Experiments:
[1] = Discoloration (delta E), Dry XAW, two-pass compounded clear PC/ABS (Example 6); conditions: in words
Experimental: Accelerated weathering is performed using an Atlas Ci65A Weather-o-meter ("XAW"), operated in either "Dry XAW" mode (ASTM G26-90 method C) or interior auto ("IAXAW") (black panel temperature 89° C., light/dark cycle 3.8 hr/1.0 hr; irradiance 0.55 watt/m^2, inner filter-quartz, outer filter--high borate.
Yellowness Index and delta E color are performed as per ASTM D-1925, using a Chroma-Sensor CS-5 Colorimeter, operated at 10 degree, small area view, specular included.
This polymer blend is prepared by two-step compounding. The hindered amine is extrusion compounded with ABS on a 18 mm twin screw extruder with set temperatures (throat to die, ° C.) of 170/200/215/225/225/225. The ABS is optionally redried then extrusion compounded with an equal weight of polycarbonate to achieve a 50/50 wt/wt ratio blend. TINUVIN® 234 is added during the second extrusion compounding step although the UV absorber can also be added during the first compounding step.
Thereafter, chip impact bars are prepared and subjected to dry XAW accelerated weathering. The samples are removed at selected intervals for color measurement and then for destructive chip impact testing.

[2] = pKa of hindered amines by non-aqueous titration; type: physicochemical; conditions: extrapolated from calibration plot
Excerpt: The pKa measurements of the hindered amines are obtained by non-aqueous titration. Organic reference materials with known pKa values in water, are titrated in non-aqueous media (1:1 acetonitrile:chloroform and 0.1 N perchloric acid/dioxane titrant system) to generate a non-aqueous calibration plot of half-neutralization potential (HNP) versus pKa. The "unknown" hindered amines are then titrated to determine the HNP, and extrapolated to obtain the corresponding pKa from this calibration plot.

[3] = Weight loss of additive by thermogravimetric analysis (TGA); type: physicochemical; conditions: 5° C./min, nitrogen; for Temperature at which stated weight loss of additive occurs, 5%: 5% weight loss; for Temperature at which stated weight loss of additive occurs, 10%: 10% weight loss
Experimental: Weight loss data for the hindered amines are obtained by thermogravimetric analysis on a DuPont model 2100 analyzer, operated at a scan rate of 5° C./min in a nitrogen atmosphere using 4-5 mg sample in aluminum pans.

Compound: CC1(C)CN(CCN(c2nc(N(CCN3CC(C)(C)NC(C)(C)C3=O)C3CCCCC3)nc(N(CCN3CC(C)(C)NC(C)(C)C3=O)C3CCCCC3)n2)C2CCCCC2)C(=O)C(C)(C)N1 [GOODRITE ® 3150, 1,3,5-tris{N-cyclohexyl-N-[2-(3,3,5,5-tetramethylpiperazin-2-on-1-yl)ethyl]amino}-s-triazine]
- color stability [1]: reasonably equivalent color stability
- Approximate pKa [2]: ~6.7
- Temperature at which stated weight loss of additive occurs, 5% [3]: 345 °C
- Temperature at which stated weight loss of additive occurs, 10% [3]: 362 °C

Compound: CN1C(C)(C)CN(CCN(c2nc(N(CCN3CC(C)(C)N(C)C(C)(C)C3=O)C3CCCCC3)nc(N(CCN3CC(C)(C)N(C)C(C)(C)C3=O)C3CCCCC3)n2)C2CCCCC2)C(=O)C1(C)C [GOODRITE ® 3159, 1,3,5-tris{N-cyclohexyl-N-[2-(3,3,4,5,5-pentaamethylpiperazin-2-on-1-yl)ethyl]amino}-s-triazine]
- Approximate pKa [2]: ~6.1
- Temperature at which stated weight loss of additive occurs, 2% ([3]; 2% weight loss (printed in 5% column)): 319 °C
- Temperature at which stated weight loss of additive occurs, 10% [3]: 372 °C

Compound: CCCCCCCCON1C(C)(C)CC(OC(=O)CCCCCCCCC(=O)OC2CC(C)(C)N(OCCCCCCCC)C(C)(C)C2)CC1(C)C [TINUVIN ® 123, bis(1-octyloxy-2,2,6,6-tetramethylpiperidin-4-yl) sebacate]
- Approximate pKa [2]: ~4.4
- Temperature at which stated weight loss of additive occurs, 5% [3]: 222 °C
- Temperature at which stated weight loss of additive occurs, 10% [3]: 236 °C

Compound: CC1(C)CC(OC(=O)CCCCCCCCC(=O)OC2CC(C)(C)NC(C)(C)C2)CC(C)(C)N1 [TINUVIN ® 770, bis(2,2,6,6-tetramethylpiperidin-4-yl) sebacate]
- Approximate pKa [2]: ~9.0
- Temperature at which stated weight loss of additive occurs, 1% ([3]; 1% weight loss (printed in 5% column)): 200 °C
- Temperature at which stated weight loss of additive occurs, 10% [3]: 260 °C

Compound: CC(C)(c1ccccc1)c1cc(-n2nc3ccccc3n2)c(O)c(C(C)(C)c2ccccc2)c1 [TINUVIN® 234, 2-(2-hydroxy-3,5-di-α-cumylphenyl)-2H-benzotriazole]
- color stability [1]: reasonably equivalent color stability
